According to publication PMC9601193, “Intracellular Metabolomics Identifies Efflux Transporter Inhibitors in a Routine Caco-2 Cell Permeability Assay—Biological Implications” (Cells, 2022):
One block for each compound: values may come before it.

Legend:
MRP2 [1] = target: T1, MRP2 (Homo sapiens, UniProt Q92887); test: Caco-2 efflux of MRP2 probe CDCF (fluorescence) with/without inhibitor or in MRP2 KO cells; assay type: cell-based; conditions: for specificity of MRP2 inhibitors (functional assessment, Supplementary Table S1): Caco-2
T1 construct: express major uptake and efflux transporters on the apical and basal membranes, including the key efflux transporters Pgp, BCRP and MRP2; host or cells: Caco-2 (HTB-37); C2BBe1 clone WT/KO cells from SOLVO Biotechnology for the knockout comparisons
T1 sequence (Q92887 whole entry): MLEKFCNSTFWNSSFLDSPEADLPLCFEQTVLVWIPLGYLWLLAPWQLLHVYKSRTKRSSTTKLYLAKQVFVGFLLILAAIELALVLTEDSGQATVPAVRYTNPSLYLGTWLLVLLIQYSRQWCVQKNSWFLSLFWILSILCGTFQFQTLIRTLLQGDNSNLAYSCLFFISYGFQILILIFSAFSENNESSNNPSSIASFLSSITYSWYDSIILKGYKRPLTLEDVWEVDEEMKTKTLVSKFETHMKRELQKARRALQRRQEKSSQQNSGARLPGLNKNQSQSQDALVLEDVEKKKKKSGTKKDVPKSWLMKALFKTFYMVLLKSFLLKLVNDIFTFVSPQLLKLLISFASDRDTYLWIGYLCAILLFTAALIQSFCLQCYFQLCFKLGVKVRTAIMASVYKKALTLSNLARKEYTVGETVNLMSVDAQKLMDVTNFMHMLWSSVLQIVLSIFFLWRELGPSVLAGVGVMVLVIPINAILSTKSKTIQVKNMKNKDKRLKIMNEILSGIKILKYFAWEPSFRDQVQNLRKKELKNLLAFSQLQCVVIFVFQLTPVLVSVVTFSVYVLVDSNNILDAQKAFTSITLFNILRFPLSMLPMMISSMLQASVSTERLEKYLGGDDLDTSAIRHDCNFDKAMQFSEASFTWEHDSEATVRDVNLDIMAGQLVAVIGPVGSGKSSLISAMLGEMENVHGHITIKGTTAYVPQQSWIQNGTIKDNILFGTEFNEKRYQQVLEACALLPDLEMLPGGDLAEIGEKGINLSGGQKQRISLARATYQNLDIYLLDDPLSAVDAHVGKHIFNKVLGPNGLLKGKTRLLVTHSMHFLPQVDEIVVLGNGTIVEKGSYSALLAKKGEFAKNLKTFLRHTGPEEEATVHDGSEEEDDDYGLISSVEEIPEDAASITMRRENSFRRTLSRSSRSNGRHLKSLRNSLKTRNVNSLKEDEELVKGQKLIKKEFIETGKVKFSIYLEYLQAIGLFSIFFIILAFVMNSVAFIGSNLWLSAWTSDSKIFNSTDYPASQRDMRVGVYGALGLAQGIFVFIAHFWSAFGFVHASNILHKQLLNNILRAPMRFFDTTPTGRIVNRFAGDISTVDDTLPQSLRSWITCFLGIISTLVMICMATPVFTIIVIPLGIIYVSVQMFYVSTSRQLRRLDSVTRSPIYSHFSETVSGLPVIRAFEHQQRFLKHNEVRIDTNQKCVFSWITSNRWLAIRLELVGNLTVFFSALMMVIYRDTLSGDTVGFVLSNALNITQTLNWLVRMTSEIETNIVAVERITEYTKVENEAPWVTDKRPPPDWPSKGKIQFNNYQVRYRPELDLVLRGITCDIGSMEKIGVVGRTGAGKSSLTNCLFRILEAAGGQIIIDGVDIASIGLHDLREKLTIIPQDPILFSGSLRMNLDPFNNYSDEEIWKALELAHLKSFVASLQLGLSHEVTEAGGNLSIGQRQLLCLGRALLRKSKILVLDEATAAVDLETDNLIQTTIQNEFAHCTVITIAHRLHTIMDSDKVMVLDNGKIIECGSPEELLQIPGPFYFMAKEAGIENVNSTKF
Protocol: (§1) The compounds were first added into either the apical or basolateral chamber in the absence or presence of the relevant inhibitor. After 2 h incubation with the compounds, the samples from the apical and basolateral chamber were collected.
For MRP2 functional analysis, CDCF-DA (non-fluorescent diacetate), was added on the apical or basal chamber which diffuses into the cells and is converted into fluorescent CDCF (MRP2 substrate) by intracellular esterases. Efflux of the fluorescent CDCF was monitored by transferring 75 μL of samples from both the donor and acceptor compartments to a clear-bottomed black 96-well plate. The CDCF fluorescence was then measured on the plate reader with 485 (exc)/528 (em) nm wavelength.
(§2) The apparent permeability (Papp) of the substrate was calculated as follows: • Papp = (dQ/dt)/(C0 × Vr A) • dQ/dt = slope of the linear portion of the permeated amount versus time curve (µmol/l/s) • A = effective surface area of the Transwell insert (0.11 cm^2) • C0 = initial concentration of the substrate (µmol/L) • Vr = the volume of the receiver chamber (mL).
(§3) The efflux ratio was calculated as follows: • Papp (B to A)/Papp (A to B)
(§4) Pgp, BCRP and MRP2 knockout (stable) Caco-2 cells (C2BBe1) were kindly provided by SOLVO Biotechnology (Szeged, Hungary). The individual transporters were knocked out using zinc finger nuclease technology. The knockout cell lines were cultured for 21 days except BCRP KO, which was grown for 25 days in a 96-well format. Assay conditions were in accordance with the Caco-2 assay from our lab. Transport analysis was performed according to the protocol described above. After transport experiments, metabolites were extracted from Caco-2 cells and analyzed according to the protocols described below.

[2] = tested on: Adenosylhomocysteinase (AHCY); test: Protein expression by Simple Western (WES/JESS) in Caco-2 cells: AHCY; assay type: cell-based, human; conditions: 2 and 24 h incubation; MK571 200 µM
Protocol: (§5) Cells were grown in a 6-well plate for 48 h and in a transwell for 10 days. Cells in the 6-well plates were incubated with inhibitors for 24 h and the cells in the transwell plate were incubated with inhibitors for 2 h to replicate metabolic effects. Protein extraction was performed once the cells were 90% confluent. Lysis buffer solution was prepared by adding 200 µL of phosphatase inhibitor cocktail 2 and 3 (Sigma-Aldrich, Dorset, UK), 100 µL of 100 mM PMSF protease inhibitor and 1 mL of CST lysis buffer (Cell Signaling Technology, Danvers, MA, USA) to 8.5 mls of deionized water. In the 6-well plate, cells were washed twice with ice-cold PBS, lysed with 500 μL of cold lysis buffer and transferred to Eppendorf tubes. The KO cells were lysed immediately after being taken out of the liquid nitrogen stock. […] The total protein concentration of the lysate was determined using Direct Detect™ infrared (IR)-based quantification system. […]
(§6) Different loading controls were used, depending on molecular weight and relative intensities of signal, and conditions were optimized accordingly. Protein samples were analyzed on a JESS/WES® (Simple Western system, Bio-Techne, Abingdon, UK) according to the manufacturer’s instructions (Protein Simple, Bio-Techne, Abingdon, UK) using a 12–230 kDa separation module. […]

MRP2 [3] = target: T1, MRP2; test: Intracellular LC-MS metabolomic signature and inhibition score for MRP2 in Caco-2 cells; assay type: cell-based
Protocol: (§7) Samples were dried using a nitrogen evaporator.
(§8) The sample injection volume was 2 μL. Sample data were acquired using Analyst software. All the samples were randomized to avoid analytical bias.

[4] = tested on: Serine Hydroxymethyltransferase 1 (SHMT1); test: Protein expression by Simple Western (WES/JESS) in Caco-2 cells: SHMT1; assay type: cell-based, human; conditions: 2 and 24 h; MK571 200 µM
Protocol: as §5, §6

MTHFR = test: Protein expression by Simple Western (WES/JESS) in Caco-2 cells: MTHFR; assay type: cell-based, human; conditions: 24 h; zosuquidar 5 µM, Ko143 10 µM, MK571 200 µM; normalized to vinculin
Protocol: as §5, §6

thymidylate synthase = test: Protein expression by Simple Western (WES/JESS) in Caco-2 cells: thymidylate synthase; assay type: cell-based, human; conditions: 24 h incubation; zosuquidar 5 µM, MK571 200 µM
Protocol: as §5, §6

BCRP [5] = target: T2, BCRP (Homo sapiens, UniProt Q9UNQ0); test: Caco-2 bidirectional transport of BCRP probe estrone-3-sulfate with/without inhibitor or in BCRP KO cells; assay type: cell-based; design: express major uptake and efflux transporters on the apical and basal membranes, including the key efflux transporters Pgp, BCRP and MRP2; host or cells: Caco-2 (HTB-37); C2BBe1 clone WT/KO cells from SOLVO Biotechnology for the knockout comparisons; conditions: C2BBe1 Caco-2 BCRP KO vs WT
T2 sequence (Q9UNQ0 1-655): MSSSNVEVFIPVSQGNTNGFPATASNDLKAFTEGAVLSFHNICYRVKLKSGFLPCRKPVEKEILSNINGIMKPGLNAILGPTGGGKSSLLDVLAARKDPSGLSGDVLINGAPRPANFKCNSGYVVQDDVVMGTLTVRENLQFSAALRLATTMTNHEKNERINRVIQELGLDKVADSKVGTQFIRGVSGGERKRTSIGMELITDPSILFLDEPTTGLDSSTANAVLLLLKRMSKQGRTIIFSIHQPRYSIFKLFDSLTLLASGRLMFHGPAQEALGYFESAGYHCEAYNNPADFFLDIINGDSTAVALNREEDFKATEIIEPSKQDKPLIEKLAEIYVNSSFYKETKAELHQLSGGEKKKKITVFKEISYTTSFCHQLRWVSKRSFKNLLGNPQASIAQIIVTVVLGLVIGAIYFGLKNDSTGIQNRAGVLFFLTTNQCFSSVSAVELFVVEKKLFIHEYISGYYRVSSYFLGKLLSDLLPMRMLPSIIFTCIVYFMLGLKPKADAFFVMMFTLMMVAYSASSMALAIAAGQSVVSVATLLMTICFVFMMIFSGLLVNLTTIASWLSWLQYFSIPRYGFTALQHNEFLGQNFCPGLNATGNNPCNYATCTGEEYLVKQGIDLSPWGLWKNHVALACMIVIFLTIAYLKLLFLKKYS
Protocol: as §1
(§9) For Pgp and BCRP functional analysis, a 75 µL aliquot of the samples was collected from both the donor and acceptor compartments and transferred to a new 96-well microplate (V bottom) containing 75 µL of methanol. 10 µL from the mixture was collected and transferred to a new plate containing 90 µL of 50:50 methanol/water. The concentration of probe substrates in the samples was then quantified using LC-MS.
The flow rate was 0.6 mL/min, and the total run time was 3.5 min. […]
as §2, §3
Pgp, BCRP and MRP2 knockout (stable) Caco-2 cells (C2BBe1) were kindly provided by SOLVO Biotechnology (Szeged, Hungary). […] After transport experiments, metabolites were extracted from Caco-2 cells and analyzed according to the protocols described below.

BCRP [6] = target: T2, BCRP; test: Intracellular LC-MS metabolomic signature and inhibition score for BCRP in Caco-2 cells; conditions: Ko143 10 µM, Fumitremorgin C 5 µM, novobiocin 30 µM; Caco-2, 2 h
Protocol: First, 2 × 10^4 cells/well were seeded on a 96 Transwell™ thin film polycarbonate membrane (0.4 µM pore size). Plates were incubated at 37 °C, 5% CO2 and 95% humidity. The cells were grown for 10 days and then treated on day 10. The monolayer integrity was checked prior to the experiment by measuring the transepithelial electrical resistance (TEER) using a TEER electrode. All TEER values ranged between 2000 and 4000 ohms∗cm^2, values greater than 1000 ohms∗cm^2 were used as an indicator of an intact monolayer.
MK571 (200 µM, n = 3) and Benzbromarone (66.7 µM, n= 1) were used to inhibit MRP2 activity. The compounds were diluted to the final concentration in HBSS (pH 7.4); 1% DMSO in HBSS was used as a control. Before treatment, media was removed, and the cells were washed twice with HBSS. […]
MultiQuant® software (v 3.0.3) was used for peak integration and the peak area for each metabolite was then exported. All data sets were normalized using the total sum of the quantified analyte area. The data were analyzed by SIMCA® 15/17 for multivariate analysis including Orthogonal Partial Least Squares–Discriminant Analysis (OPLS-DA). […]
The percentage difference for the normalized area of each (transporter) signature metabolite was calculated using the following equation:100 × (treated—control)/control

Pgp [7] = target: T3, Pgp (Homo sapiens, UniProt P08183); test: Caco-2 bidirectional transport of Pgp probe indinavir with/without inhibitor or in Pgp KO cells; assay type: cell-based; conditions: for specificity of Pgp inhibition among Pgp, BCRP and MRP2 (functional experiments): zosuquidar 10 µM, valspodar 50 nM
T3 construct: express major uptake and efflux transporters on the apical and basal membranes, including the key efflux transporters Pgp, BCRP and MRP2; host or cells: Caco-2 (HTB-37); C2BBe1 clone WT/KO cells from SOLVO Biotechnology for the knockout comparisons
T3 sequence (P08183 whole entry): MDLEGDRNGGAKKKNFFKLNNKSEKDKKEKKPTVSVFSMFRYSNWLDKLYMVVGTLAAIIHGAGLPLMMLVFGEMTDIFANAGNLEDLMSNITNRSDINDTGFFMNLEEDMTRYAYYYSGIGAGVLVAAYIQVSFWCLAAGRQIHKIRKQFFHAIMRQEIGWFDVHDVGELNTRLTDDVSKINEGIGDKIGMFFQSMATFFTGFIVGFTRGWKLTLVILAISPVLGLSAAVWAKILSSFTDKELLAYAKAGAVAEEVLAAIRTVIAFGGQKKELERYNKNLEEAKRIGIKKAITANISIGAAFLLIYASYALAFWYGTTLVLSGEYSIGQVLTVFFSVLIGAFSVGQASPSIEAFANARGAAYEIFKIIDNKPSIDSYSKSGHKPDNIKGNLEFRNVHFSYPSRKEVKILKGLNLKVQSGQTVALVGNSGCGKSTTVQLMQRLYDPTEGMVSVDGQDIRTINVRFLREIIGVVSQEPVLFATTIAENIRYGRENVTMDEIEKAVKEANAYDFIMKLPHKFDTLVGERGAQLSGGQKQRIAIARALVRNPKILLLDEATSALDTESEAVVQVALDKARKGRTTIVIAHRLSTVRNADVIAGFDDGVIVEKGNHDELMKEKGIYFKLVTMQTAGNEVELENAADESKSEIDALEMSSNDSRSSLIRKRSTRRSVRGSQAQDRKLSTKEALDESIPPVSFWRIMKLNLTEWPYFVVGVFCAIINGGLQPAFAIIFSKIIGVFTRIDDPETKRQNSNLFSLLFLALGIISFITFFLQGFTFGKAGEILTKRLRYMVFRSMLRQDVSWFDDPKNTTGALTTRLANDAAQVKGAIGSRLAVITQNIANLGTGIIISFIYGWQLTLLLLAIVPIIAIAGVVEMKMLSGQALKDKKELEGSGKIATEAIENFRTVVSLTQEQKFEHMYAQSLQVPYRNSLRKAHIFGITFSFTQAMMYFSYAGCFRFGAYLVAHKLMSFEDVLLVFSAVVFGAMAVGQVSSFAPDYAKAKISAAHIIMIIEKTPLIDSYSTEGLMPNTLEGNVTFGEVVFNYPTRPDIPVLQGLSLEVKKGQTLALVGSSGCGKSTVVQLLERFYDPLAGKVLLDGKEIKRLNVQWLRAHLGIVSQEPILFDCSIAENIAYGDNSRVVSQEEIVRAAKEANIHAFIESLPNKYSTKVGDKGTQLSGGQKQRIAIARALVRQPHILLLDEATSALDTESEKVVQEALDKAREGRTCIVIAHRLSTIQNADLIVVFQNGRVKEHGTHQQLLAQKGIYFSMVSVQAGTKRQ
Protocol: as §1, §9
The flow rate was 0.6 mL/min, and the total run time was 3.5 min. The sample injection volume was 2 μL. Sample data were acquired using Analyst software.
as §2, §3, §4

Pgp [8] = target: T3, Pgp; test: Intracellular LC-MS metabolomic signature and inhibition score for Pgp in Caco-2 cells; assay type: cell-based; conditions: some of the metabolites
Protocol: as §7, §8
For example, for Pgp, the percentage changes in Pgp signature metabolites with Pgp inhibition were summed to calculate a Pgp inhibition score for that inhibitor.

[9] = design: method as in PMID 33312947; conditions: trials testing efficacy against multidrug resistance; cited from earlier work
methionine synthase = test: Protein expression by Simple Western (WES/JESS) in Caco-2 cells: methionine synthase; assay type: cell-based, human; conditions: 2 and 24 h incubation; zosuquidar 5 µM
Protocol: as §5, §6

Compound: CN(C)C(=O)CCSC(SCCC(=O)O)c1cccc(/C=C/c2ccc3ccc(Cl)cc3n2)c1 (stereo not drawn) [MK571]
specificity of MRP2 inhibitors (functional assessment, Supplementary Table S1) (MRP2 [1]): lack of specificity | CDCF efflux in presence of inhibitor (MRP2 [1]; Caco-2 monolayer, CDCF 10 µM, 2 h): markedly reduced | Adenosylhomocysteinase (AHCY) protein levels [2]: significantly reduced | change of MRP2 signature metabolites with increasing inhibitor concentration (MRP2 [3]): concentration-dependent change | Serine Hydroxymethyltransferase 1 (SHMT1) expression [4]: significant reduction | MTHFR protein expression (MTHFR): significant decrease | thymidylate synthase expression (thymidylate synthase): reduced

efflux ratio in BCRP KO cells in comparison with wild type cells (BCRP [5]): reduced
Compound: C[C@]12CC[C@@H]3c4ccc(OS(=O)(=O)O)cc4CC[C@H]3[C@@H]1CCC2=O [estrone-3-sulfate]

efflux ratio in MRP2 KO cells in comparison with wild type cells (MRP2 [1]; C2BBe1 Caco-2 MRP2 KO vs WT): reduced
Compound: 5(6)-carboxy-2′,7′-dichlorofluorescein [CDCF]

Compound: COc1ccc2c3c([nH]c2c1)[C@H](C=C(C)C)N1C(=O)[C@@H]2CCCN2C(=O)[C@@H]1C3 [Fumitremorgin C]
intracellular levels of glutamate, hypoxanthine and xanthine (BCRP [6]): decreased | intracellular pantothenate levels (BCRP [6]): increased

specificity of MRP2 inhibitors (functional assessment, Supplementary Table S1) (MRP2 [1]): lack of specificity
Compound: CCc1oc2ccccc2c1C(=O)c1cc(Br)c(O)c(Br)c1 [benzbromarone, Benzbromarone]

Compound: O[C@@H](COc1cccc2ncccc12)CN1CCN([C@@H]2c3ccccc3[C@@H]3[C@H](c4ccccc42)C3(F)F)CC1 [zosuquidar]
transcellular transport of indinavir in presence of inhibitor (Pgp [7]; Caco-2 monolayer, indinavir 10 µM, 2 h): inhibited | specificity of Pgp inhibition among Pgp, BCRP and MRP2 (functional experiments) (Pgp [7]): specifically inhibit Pgp | MTHFR protein expression (MTHFR): increase | change of Pgp signature metabolites with increasing inhibitor concentration (Pgp [8]): concentration dependent change | toxicity observed in clinical trials [9]: neurotoxicity | methionine synthase expression (methionine synthase): increase | thymidylate synthase expression (thymidylate synthase): reduced

specificity of Pgp inhibition among Pgp, BCRP and MRP2 (functional experiments) (Pgp [7]): specifically inhibit Pgp
Compound: C/C=C/C[C@@H](C)C(=O)[C@H]1C(=O)N[C@@H](C(C)C)C(=O)N(C)CC(=O)N(C)[C@@H](CC(C)C)C(=O)N[C@@H](C(C)C)C(=O)N(C)[C@@H](CC(C)C)C(=O)N[C@@H](C)C(=O)N[C@H](C)C(=O)N(C)[C@@H](CC(C)C)C(=O)N(C)[C@@H](CC(C)C)C(=O)N(C)[C@@H](C(C)C)C(=O)N1C [valspodar]

Pgp inhibition compared to other additional inhibitors (Pgp [7]; validation inhibitors of Figure 5C): weaker interaction with Pgp
Compound: CN(C)CCCN1c2ccccc2Sc2ccc(Cl)cc21 [chlorpromazine]
